Assays:
[1] = tested on: acetic acid (AA) irritated bladders of rats; test: Acute bladder irritation by acetic acid in rats (continuous infusion cystometrogram); type: in vivo, rat (female Sprague Dawley); conditions: anesthetized rats; 3, 10 and 30 mg/kg, intravenous cumulative doses; intravesical infusion of 0.15% acetic acid; FIG. 1
Method: (§1) The effect of a representative compound of formula I, (S)-(+)-2-[4-(2-fluorobenzyloxy)-benzylamino]-propanamide (NW-1029), on voiding function was tested in the following rat models of “Acute bladder irritation by acetic acid” and “Intermediate bladder irritation by cyclophosphamide (CYP)”.
(§2) Continuous infusion cystometrograms (0.04 ml/min) were used to measure intercontraction intervals (ICIs) which provide an estimate of bladder capacity. Cumulative dose response curves were obtained in each animal by administering intravenously increasing doses of the drug.
Experiments were performed using adult anesthetized female Sprague Dawley rats (170-200 g).
A catheter (PE-50) was inserted via a midline abdominal incision into the bladder through the bladder dome, and then intravesical pressure was measured to monitor bladder activity during continuous infusion of 0.15% of acetic acid. Intercontraction intervals (ICIs), maximal contraction pressure, and pressure thresholds inducing reflex bladder contraction were measured before and after intravesical infusion of acetic acid in NW-1029 treated rats.

[2] = tested on: cyclophosphamide (CYP) irritated bladders of rats; test: Intermediate bladder irritation by cyclophosphamide (CYP) in rats (continuous infusion cystometrogram); type: in vivo, rat (female Sprague Dawley); conditions: 0.1 to 10 mg/kg/iv, CYP 150 mg/kg/ip one day before
Method: as §1, §2
Experiments were performed using both adult awake and anesthetized female Sprague Dawley rats (170-200 g).
Chemical cystitis was induced by CYP, which is metabolized to acrolein, an irritant eliminated in the urine. CYP (150 mg/kg/ip) was administered one day before the experiment.
NW-1029 was administered in a dose range from 0.1 to 10 mg/kg/iv.

C[C@H](NCc1ccc(OCc2ccccc2F)cc1)C(N)=O [NW-1029, (S)-(+)-2-[4-(2-fluorobenzyloxy)-benzylamino]-propanamide]
intercontraction interval (ICI), reversal of AA-induced reduction [1]: significant reversal of the AA-induced reduction in the ICI
intercontraction interval (ICI) ([2]; anesthetized rats, FIG. 3): significantly increases the ICI
intercontraction interval (ICI) ([2]; awake rats, FIG. 2): significantly increases the ICI

— US7718815B2, “Alpha-aminoamide derivatives useful in the treatment of lower urinary tract disorders” (Newron Pharmaceuticals S.p.A., priority 2004, dated 2010)
